Our source for the TGI values is PubChem BioAssay (NCI).

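Compound exposure: 48 hours, 5 concentrations, 96-well plates. TGI: total growth inhibition.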

Among the test systems are SF-539 CNS; COLO 205 colon; TK-10 renal; CAKI-1 renal; LOX IMVI melanoma; MOLT-4 leukemia; RPMI-8226 leukemia; OVCAR-8 ovarian; U251 CNS; K-562 leukemia; MDA-MB-435; SW-620 colon; HL-60(TB) leukemia; EKVX NSCLC; NCI/ADR-RES ovarian; HT29 colon; SF-268 CNS; HCC-2998 colon; SR leukemia; HS 578T breast.
Common to all, as to test: NCI tumour cell line growth inhibition, 48 h

Regarding `NC1CC(=O)c2cscc21` (configuration not stated), the TGI was greater than 100 µM in the assay with SF-539 CNS; 52 µM in the assay on COLO 205 colon; 33.6 µM with TK-10 renal; 29.3 µM in the assay with CAKI-1 renal; greater than 100 µM in the assay on LOX IMVI melanoma; greater than 100 µM in the assay on MOLT-4 leukemia. Further, the TGI in the assay on RPMI-8226 leukemia was greater than 100 µM; with OVCAR-8 ovarian it was greater than 100 µM; in the assay on U251 CNS, greater than 100 µM; in the assay with K-562 leukemia it was greater than 100 µM; in the assay with MDA-MB-435, 64.2 µM; in the assay on SW-620 colon, 37.4 µM. Also, the TGI in the assay on HL-60(TB) leukemia was 33.3 µM; with EKVX NSCLC, greater than 100 µM; in the assay with NCI/ADR-RES ovarian, greater than 100 µM; in the assay with HT29 colon it was greater than 100 µM.

With `O=C(O)CCC(NC(=O)c1ccc(OCc2nc3cc(C(F)(F)F)ccc3nc2-c2ccccc2)cc1)C(=O)O` (configuration not stated), the TGI with SF-539 CNS, with COLO 205 colon, in the assay with TK-10 renal, with CAKI-1 renal, in the assay with LOX IMVI melanoma and in the assay with MOLT-4 leukemia was greater than 100 µM throughout. Moreover, the TGI in the assay with OVCAR-8 ovarian, in the assay on U251 CNS, in the assay with K-562 leukemia, in the assay with MDA-MB-435, with SF-268 CNS and in the assay on SW-620 colon was greater than 100 µM each time. Further, the TGI in the assay on HL-60(TB) leukemia, in the assay on EKVX NSCLC, in the assay with NCI/ADR-RES ovarian, with HCC-2998 colon, with SR leukemia and in the assay on HT29 colon was greater than 100 µM each time.

For the compound `Cc1ccc(-c2n[nH]c(Cc3nc(-c4ccc(C)cc4)n[nH]3)n2)cc1`, the TGI with SF-539 CNS, in the assay on COLO 205 colon, in the assay with TK-10 renal, in the assay with LOX IMVI melanoma, in the assay with MOLT-4 leukemia and in the assay with RPMI-8226 leukemia was greater than 100 µM throughout. Also, the TGI was greater than 100 µM in the assay with OVCAR-8 ovarian; 33.8 µM in the assay with U251 CNS; greater than 100 µM in the assay with K-562 leukemia; greater than 100 µM in the assay on MDA-MB-435; greater than 100 µM in the assay on SF-268 CNS; greater than 100 µM with SW-620 colon. For the same compound, the TGI with EKVX NSCLC, in the assay with NCI/ADR-RES ovarian, with HCC-2998 colon and with HT29 colon was greater than 100 µM throughout.

In the case of `C=CC[C@H]1O[Si](C(C)(C)C)(C(C)(C)C)[C@H](C)[C@H]1C`, the TGI in the assay with SF-539 CNS, in the assay on COLO 205 colon, with TK-10 renal, with CAKI-1 renal, with LOX IMVI melanoma and in the assay on MOLT-4 leukemia was greater than 100 µM each time. Moreover, the TGI with OVCAR-8 ovarian, in the assay on U251 CNS, with K-562 leukemia, with MDA-MB-435, in the assay on SW-620 colon and with HL-60(TB) leukemia was greater than 100 µM in each case. Further, the TGI in the assay on EKVX NSCLC, in the assay on NCI/ADR-RES ovarian, in the assay on HCC-2998 colon, with SR leukemia and with HT29 colon was greater than 100 µM throughout.

`COc1cc(-c2ccc(Br)[nH]2)[nH]c1C=NCC(C)C`: the TGI in the assay with SF-539 CNS came to 5.84 µM; in the assay with COLO 205 colon, 2.48 µM; with TK-10 renal, 6.56 µM; in the assay on HS 578T breast, 5.26 µM; with CAKI-1 renal it was 7.64 µM; in the assay on MOLT-4 leukemia, 4.04 µM. The TGI was found to be 2.67 µM in the assay on RPMI-8226 leukemia; 6.28 µM in the assay with OVCAR-8 ovarian; 3.88 µM in the assay on U251 CNS; 14.2 µM in the assay on K-562 leukemia; 4.54 µM with MDA-MB-435; 9.1 µM with SF-268 CNS. The TGI came to 3.9 µM in the assay on HL-60(TB) leukemia, 2.03 µM in the assay with EKVX NSCLC, 4.67 µM with HCC-2998 colon and 3.54 µM in the assay on HT29 colon.

With `C=CCC1(O)CC(n2cc(C)c(=O)[nH]c2=O)OC1CO[Si](C)(C)C(C)(C)C` (configuration not stated), the TGI is greater than 100 µM with SF-539 CNS; 42.7 µM in the assay with COLO 205 colon; greater than 100 µM with CAKI-1 renal; 89.6 µM with LOX IMVI melanoma; greater than 100 µM in the assay on MOLT-4 leukemia; 97.7 µM with RPMI-8226 leukemia. The TGI in the assay on OVCAR-8 ovarian, in the assay on U251 CNS, with K-562 leukemia, with MDA-MB-435, with SW-620 colon and in the assay on EKVX NSCLC was greater than 100 µM each time. Moreover, the TGI with NCI/ADR-RES ovarian, with HCC-2998 colon, in the assay with SR leukemia and in the assay on HT29 colon was greater than 100 µM in each case.

With `CC(=O)c1cccc(Nc2nc3ccccc3c3occc23)c1`, the TGI in the assay on SF-539 CNS was 35.6 µM; with COLO 205 colon, greater than 100 µM; in the assay on TK-10 renal, 38.5 µM; in the assay on CAKI-1 renal, greater than 100 µM; in the assay with LOX IMVI melanoma, greater than 100 µM; with MOLT-4 leukemia, greater than 100 µM. The TGI with RPMI-8226 leukemia was greater than 100 µM; with OVCAR-8 ovarian, 74.5 µM; in the assay with U251 CNS, 55.9 µM; in the assay with K-562 leukemia, greater than 100 µM; with MDA-MB-435 it was greater than 100 µM; with SF-268 CNS it was 86.7 µM. The TGI in the assay with HL-60(TB) leukemia, with EKVX NSCLC, with NCI/ADR-RES ovarian, in the assay on HCC-2998 colon, in the assay with SR leukemia and with HT29 colon was greater than 100 µM throughout.
